Measured values from patent US10357577B2, “Bacterial nitroreductase enzymes and methods relating thereto” (AUCKLAND UNISERVICES LIMITED, priority 2010, dated 2019).
Entries after “also recorded” stand apart in the source; their conditions may differ.

What was measured:
NfsB(Ec) = target: T1, NfsB(Ec) (Escherichia coli, UniProt P38489); test: Growth Inhibition assay, NTR over-expressing E. coli SOS-R2; format: cell-based; settings: elevated substrate concentrations (400 μM F-MISO, 600 μM HX4)
T1 construct: expressed in transfected cells; host or cells: E. coli SOS-R2 (endogenous nfsA, nfsB, nemA and azoR deleted) carrying pUCX::ntr
Procedure: FIG. 34 (B) illustrates the metabolism of F-MISO by members of the 58 NTR over-expression library as measured by Growth Inhibition assay as described for FIG. 34A except that cells were challenged with 400 μM F-MISO.
FIG. 35 (B) illustrates the metabolism of HX4 by members of the 58 NTR over-expression library as measured by Growth Inhibition assay as described for FIG. 35A except that cells were challenged with 600 μM HX4.
Individual microtiter plate wells containing 200 μl LB+amp, 0.4% glucose were inoculated with SOS-R2 pUCX::ntr strains and incubated overnight at 30° C., 200 rpm. Ten μl of the overnight culture were used to inoculate 190 μl of fresh assay media (LB+amp, 0.05 mM IPTG, 0.2% glucose) and incubated at 30° C., 200 rpm for 3 h. The 200 μl culture was split into 100 μl duplicates which were supplemented with either 100 μl challenge media (assay media+250 uM EF5+2% DMSO) or 100 μl control media (assay media+2% DMSO). Initial OD600 readings were recorded and then plates incubated at 30° C., 200 rpm for 4 h after which final OD600 readings were taken and used to calculate strains respective growth inhibition in EF5 presence.

[1] = test system: HCT116 cells expressing E. coli NfsB; test: Monolayer antiproliferative (IC50) assay, NTR-expressing HCT116; format: cell-based, human; settings: 18 hrs exposure, 5 days regrowth
Procedure: (§1) FIGS. 10 (B) and 10 (C) illustrates the results of evaluation of 2-nitroimidazole clinical imaging candidates with E. coli and non-E. coli NTRs. Stably-expressing cells were treated with varying concentration of 2-nitroimidazole prodrugs diluted in αMEM+5% FCS+P/S. Cells were exposed to prodrug for 18 hrs, washed and left to regrow for 5 days. IC50 was determined as the concentration of prodrug required to inhibit cell growth by 50% of untreated controls. IC50 values are mean for ≥2 independent experiments. WT:NTR ratio-ratio of IC50 means from WT cells versus NTR-expressing cell lines.
as §1, with “FIG. 21” for “FIGS. 10 (B) and 10 (C)”, “antiproliferative activity (IC50 value)” for “the results”, “prodrug” for “evaluation of 2-nitroimidazole clinical imaging”, “nitroreductases.” for “NTRs.”, “prodrug” for “2-nitroimidazole prodrugs”, “ratio-interexperimental ratio” for “ratio-ratio”
(§2) Isolated NTR gene sequences were subject to PCR and introduced in the bicistronic plasmid F579 via Gateway cloning (Invitrogen) as described by Prosser et al. (2010, Biochem Pharmacol, 79, 678-687). Stably transfected cell lines were created by transfection of the relevant plasmid using FuGENE 6 Transfection Reagent (Roche). Transfected cell populations were maintained by passage in puromycin
(§3) Cells were passaged in alpha-Minimal Essential Media, (αMEM; Gibco) supplemented with 5% FBS, (GIBCO NZ) without antibiotics. Cell were passaged for <3 months from frozen stocks and confirmed Mycoplasma free (PCR-ELISA; Roche Diagnostics). Cells were aliquoted into the 96-well plate (100 μL/well) and cells were left to attach (≥4 hrs). […] Plates were read on an ELx 808 Absorbance Microplate Reader (Bio-Tek Instruments). Absorbance was measured at 490 nm and 450 nm (final absorbance 490-450). […]

[2] = test system: HCT116 cells expressing NfsB homologue P. putida 2432; test: as above; format: cell-based, human; settings: 18 hrs exposure, 5 days regrowth
Procedure: as §1, §2
as §3, with “Diagnostics).” for “Diagnostics). Cells were aliquoted into the 96-well plate (100 μL/well) and cells were left to attach (≥4 hrs).”

[3] = Human plasma concentration-time (AUC) and tolerability; format: in vivo; settings: 50 μM metronidazole exposure, achievable in humans, read-out: human AUC equivalent to the protective exposure
[4] = test system: ONYX-411^WT infected HCT-116WT cells; test: Cytopathic effect assay, control virus; format: cell-based, adenovirus; settings: metronidazole refreshed every 2 days, read on day 9
Procedure: (§4) FIG. 31 illustrates the cytoprotective effects of NfsB dependent activation of metronidazole by conditionally replicating virus ONYX411^NfsB. HCT-116WT cells were seeded overnight and the top wells were infected with 0.125 MOI for ONYX411-nfsB and 1 MOI for ONYX411-WT with 2-fold serial dilutions. 24 hrs following infection media was replaced with fresh αMEM containing 2% FCS and varying concentrations of metronidazole, which was refreshed every 2 days. On day 9 wells were fixed with 10% TCA and stained with SRB and cell density analysed.
(§5) HCT-116WT cells were seeded overnight and the top wells were infected with 0.125 MOI of the replication competent adenovirus ONYX411-nfsB and 1 MOI for ONYX411-WT with 2-fold serial dilutions ((Singleton et al, 2007, Cancer Gene Ther 14 (12): 953-967). 24 hrs following infection media was replaced with fresh αMEM containing 2% FCS and varying concentrations of metronidazole, which was refreshed every 2 days. On day 9 wells were fixed with 10% TCA and stained with SRB and cell density analysed.

[5] = test system: nitroreductase NfsA-expressing HCT116 'activator' cells; test: MCL (multicellular layer) bystander experiment, NfsA-dependent activation; format: cell-based, human
Procedure: Displacement of the Target cell survival curve to the left (T to Tc) is indicative of the presence of a cytotoxic metabolite(s) able to diffusible out of the sensitive activator (A) cell population. The prodrug concentrations for 10% survival (C10) of target cells (wild-type cells) grown without activators (T), targets in co-culture (TC) and activators (nfsA-expressing cells) in co-culture (AC) were determined by interpolation. BEE-Bystander effect efficiency calculates the drugs bystander effect: ((Log C10T−Log C10TC)/(Log C10T−Log C10AC)).
The prodrug concentrations for 10% survival (C10) of target cells (wild-type cells) grown without activators (T), and targets in co-culture (TC) and activators (NTR-expressing cells) in co-culture (AC) can be determined. The bystander effect of a test prodrug is measured by the bystander effect efficiency which can be calculated using the algorithm ((Log C10T−Log C10TC)/(Log C10T−Log C10AC)).
Millicell-CM membrane inserts (Millipore) were coated in calf-skin collagen type III (Sigma-Aldrich) to facilitate cell attachment. […] After exposure, inserts were disaggregated (0.07% trypsin, 10 min, 37° C., followed by 100 μg/ml DNAase I (Sigma-Aldrich). Cells were counted, resuspended and plated in P60 dishes to determine clonogenic survival. To discriminate clonogenic activator (NTR+) from target (NTR−) colonies cells were plated in non-selective medium (total cells) and medium containing 1 μM puromycin (activator cells). Colonies were grown in a 37° C. 5% CO2 incubator for 10 days before staining with methylene blue (2 g/liter in 50% v/v aqueous ethanol). Colonies containing >50 cells were counted as clonogenic survivors. Surviving fractions for each population was calculated as the plating efficiency for drug-treated MCLs/untreated controls. The drug concentrations for 10% survival (C10) of target cells grown without activators (T), targets in co-culture (Tc) and activators in co-culture (Ac) was determined by interpolation.

[6] = test system: ONYX-411^NfsB infected HCT-116WT cells; test: Cytopathic effect assay, replicating adenovirus expressing E. coli NfsB; format: cell-based; settings: metronidazole refreshed every 2 days, read on day 9
Procedure: as §4, §5

[7] = test system: 25% HCT-116^nfsB/75% HCT-116^WT or 25% HCT-116^nfsA/75% HCT-116^WT tumours; test: Tumour xenograft growth delay; format: in vivo, NIH-III nude mice; settings: single dose i.p. PR-104 1000 μmol/kg
Procedure: FIG. 18 illustrates in vivo activity of PR-104 in 25% nfsB or 25% nfsA tumours. Average tumour volume and Kaplan-Meier growth plots for tumours grown subcutaneously on NIH-III mice. Tumours were composed of either 25% HCT-116^nfsB/75% HCT-116^WT or 25% HCT-116^nfsA/75% HCT-116^WT. When tumours reached 7 mm^2 mice (n=8-11 per group) were randomly assigned to a treatment group and injected with a single dose (i.p.) of PBS (control) or PR-104 (1000 μmol/kg). Tumour measurements were recorded twice weekly and mice were culled when tumours exceeded a mean diameter of […].
Specific pathogen-free female homozygous NIH-III nude mice (CrI:NIH-Lyst^bgFoxn1^nuBtk^xid; Charles River Laboratories) were housed in Techniplast microisolator cages and fed Harlan Teklad diet 2018i. […] Tumours were monitored using electronic calipers and mice were randomised into treatment groups once their tumours reached 7×7 mm in diameter. Tumour size and body weight were determined three times weekly. Tumour volume was calculated as π (I×w^2)/6, where I is the major axis and w is the perpendicular minor axis. […] The median time for tumours to increase in volume 4-fold relative to pretreatment volume (RTV-4) was determined, and the specific growth delay (SGD) was calculated as the percentage increase in RTV-4 for treated versus control groups. […]

T1 sequence (P38489 whole entry): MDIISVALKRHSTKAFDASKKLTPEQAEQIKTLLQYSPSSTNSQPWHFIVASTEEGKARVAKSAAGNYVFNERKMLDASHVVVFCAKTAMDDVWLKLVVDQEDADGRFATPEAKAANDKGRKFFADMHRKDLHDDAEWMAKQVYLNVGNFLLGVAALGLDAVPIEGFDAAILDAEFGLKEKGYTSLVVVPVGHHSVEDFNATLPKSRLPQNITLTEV

O=[N+]([O-])c1nccn1CC(O)CF (stereo not drawn) [F-MISO, 1-fluoro-3-(2-nitro-1H-imidazol-1-yl)propan-2-ol]
activity with 2-NI substrate (in words) (NfsB(Ec)): substantial activity
sensitivity to 2-nitroimidazoles (in words) [1]: modest sensitivity
sensitivity to 2-nitroimidazoles (in words) [2]: modest sensitivity

Cc1ncc([N+](=O)[O-])n1CCO [Metronidazole, 2-(2-methyl-5-nitro-1H-imidazol-1-yl)ethanol]
AUC [3]: 1200 µM·h
effect on oncolytic activity (in words) [4]: no inhibitory effects
bystander property (in words) ([5]; MCL of NTR-expressing and parental HCT116 cells): lack any measurable bystander effect; also recorded: zero bystander property
estimated bystander effect efficiency (BEE) ([5]; hyperoxic (95% O2) MCLs, at concentrations achievable in α-MEM+10% FBS, activator fraction differs per experiment): 0%
concentration range with reduction in oncolytic activity [6]: 50 to 500 µM

CS(=O)(=O)OCCN(CCBr)c1c(C(=O)NCCOP(=O)(O)O)cc([N+](=O)[O-])cc1[N+](=O)[O-] [PR-104, 2-((2-bromoethyl)(2,4-dinitro-6-((2-(phosphonooxy)ethyl)carbamoyl)phenyl)amino)ethyl methanesulfonate]
PR-104 dependent growth delay, nfsB versus nfsA tumours (in words) [7]: similar, with no statistically significant difference
